Measured values as given in US20250002475A1 (EPICS THERAPEUTICS, priority 2023, published 2025).

Tests used:
Caov-3 cells = experiment: Caov-3 cellular viability assay (ATP-Lite, 72 h); assay type: cell-based; settings: Homo sapiens, ATP-Lite luminescence, % viability relative to DMSO
Method in brief: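 10000 cells/well treated 72 h at 37 °C, 5% CO2, in RPMI-1640 with 10% FBS and 0.1% DMSO final. Viability by ATP-Lite One Step luminescence. Expressed as % of DMSO control, with IC50 from each compound's concentration-response curve.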

Kasumi-1 cells = experiment: Kasumi-1 cellular viability assay (ATP-Lite, 72 h); assay type: cell-based; settings: Homo sapiens, ATP-Lite luminescence, % viability relative to DMSO
Method in brief: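 Kasumi-1 AML cells, 15000/well in RPMI-1640 with 10% FBS, were exposed to compound titrations (0.1% final DMSO) for 72 h at 37 °C, 5% CO2. ATP-Lite One Step luminescence gave % viability versus DMSO control, and IC50 came from the concentration-response.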

[1] = biological target: T1, recombinant METTL3/METTL14 complex (Homo sapiens, UniProt Q86U44); experiment: METTL3/14 Scintillation Proximity Assay (SPA), RNA methyltransferase activity; assay type: biochemical; settings: 5.31 nM METTL3/14 complex, 250 nM RNA substrate, 1 μM 3H-SAM, 90 min; for compounds marked * best of the two separated forms
T1 construct: purchased Active Motif 311970; host or cells: Sf9 cells
T1 sequence (Q86U44 whole entry): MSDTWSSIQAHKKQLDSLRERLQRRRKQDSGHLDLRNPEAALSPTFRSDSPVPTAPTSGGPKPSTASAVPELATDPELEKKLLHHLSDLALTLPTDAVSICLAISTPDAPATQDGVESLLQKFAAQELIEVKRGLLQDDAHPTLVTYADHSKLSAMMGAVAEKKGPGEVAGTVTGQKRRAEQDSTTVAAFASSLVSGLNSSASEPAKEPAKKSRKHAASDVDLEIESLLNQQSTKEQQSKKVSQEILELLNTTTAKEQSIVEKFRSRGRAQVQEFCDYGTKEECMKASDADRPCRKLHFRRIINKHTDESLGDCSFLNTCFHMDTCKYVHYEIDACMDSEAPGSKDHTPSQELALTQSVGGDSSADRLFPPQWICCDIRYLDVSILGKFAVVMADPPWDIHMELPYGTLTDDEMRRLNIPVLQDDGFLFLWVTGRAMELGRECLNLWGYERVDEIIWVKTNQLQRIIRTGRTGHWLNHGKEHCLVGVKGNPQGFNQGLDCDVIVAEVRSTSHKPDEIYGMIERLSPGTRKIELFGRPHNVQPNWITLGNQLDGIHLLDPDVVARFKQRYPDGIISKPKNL
T1 sequence (Q9HCE5 whole entry partner): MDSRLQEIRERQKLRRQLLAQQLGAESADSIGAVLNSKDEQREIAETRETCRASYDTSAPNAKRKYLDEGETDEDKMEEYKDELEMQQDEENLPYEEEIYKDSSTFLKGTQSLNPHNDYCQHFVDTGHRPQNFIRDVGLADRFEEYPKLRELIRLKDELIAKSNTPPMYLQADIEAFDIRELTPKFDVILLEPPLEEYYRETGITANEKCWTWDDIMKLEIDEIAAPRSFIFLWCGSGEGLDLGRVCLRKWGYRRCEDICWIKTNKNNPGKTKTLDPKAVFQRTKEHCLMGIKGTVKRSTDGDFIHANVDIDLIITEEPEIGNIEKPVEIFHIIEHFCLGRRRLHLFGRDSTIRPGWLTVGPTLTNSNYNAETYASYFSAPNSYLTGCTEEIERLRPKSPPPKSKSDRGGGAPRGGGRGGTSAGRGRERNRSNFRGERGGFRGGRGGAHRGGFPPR

Row | IC50 [1] | Compound | IC50 (Caov-3 cells) | IC50 (Kasumi-1 cells)
1 | ≤ 50 nM | COc1cncc(-c2cn(C(C)n3ncc(N4CCC[C@@H](NCC5CCC5)C4)cc3=O)nn2)c1 (stereo partly drawn) [Compound 067, 5-((R)-3-((cyclobutylmethyl)amino)piperidin-1-yl)-2-(1-(4-(5-methoxypyridin-3-yl)-1H-1,2,3-triazol-1-yl)ethyl)pyridazin-3(2H)-one] | 500 to 5000 nM | 500 to 5000 nM
2 | ≤ 50 nM | COc1cncc(-c2cn(Cc3ccc(N4CCC[C@@H](NCC5CCC5)C4)cc3)nn2)c1 [Compound 068, (R)-N-(cyclobutylmethyl)-1-(4-((4-(5-methoxypyridin-3-yl)-1H-1,2,3-triazol-1-yl)methyl)phenyl) piperidin-3-amine] | 500 to 5000 nM | 500 to 5000 nM
3 | ≤ 50 nM | COc1cncc(-n2cc(Cn3ccc(N4CCC[C@@H](NCC5CCC5)C4)cc3=O)nn2)c1 [Compound 075, (R)-4-(3-((cyclobutylmethyl)amino)piperidin-1-yl)-1-((1-(5-methoxypyridin-3-yl)-1H-1,2,3-triazol-4-yl)methyl)pyridin-2(1H)-one] | 500 to 5000 nM | > 5000 nM
4 | ≤ 50 nM | COc1cncc(-c2nnc(Cn3ccc(N4CCC[C@@H](NCC5CCC5)C4)cc3=O)s2)c1 [Compound 077, (R)-4-(3-((cyclobutylmethyl)amino)piperidin-1-yl)-1-((5-(5-methoxypyridin-3-yl)-1,3,4-thiadiazol-2-yl)methyl)pyridin-2(1H)-one] | 500 to 5000 nM | 500 to 5000 nM
5 | ≤ 50 nM | COc1cncc(-c2cn(Cc3ccc(N4CCC[C@@H](NCC5CCC5)C4)nn3)cn2)c1 [Compound 081, (R)-N-(cyclobutylmethyl)-1-(6-((4-(5-methoxypyridin-3-yl)-1H-imidazol-1-yl)methyl)pyridazin-3-yl)piperidin-3-amine] | ≤ 500 nM | 500 to 5000 nM
6 | ≤ 50 nM | COc1cncc(-c2cn(C(C)(C)c3ccc(N4CCC[C@@H](NCC5CCC5)C4)nn3)nn2)c1 [Compound 082, (R)-N-(cyclobutylmethyl)-1-(6-(2-(4-(5-methoxypyridin-3-yl)-1H-1,2,3-triazol-1-yl)propan-2-yl)pyridazin-3-yl)piperidin-3-amine] | 500 to 5000 nM | 500 to 5000 nM
7 | ≤ 50 nM | COc1cncc(-c2cn(Cc3ccc(N4CCC[C@@H](NCC5CCC5)C4)nc3)nn2)c1 [Compound 086, (R)-N-(cyclobutylmethyl)-1-(5-((4-(5-methoxypyridin-3-yl)-1H-1,2,3-triazol-1-yl)methyl)pyridin-2-yl)piperidin-3-amine] | 500 to 5000 nM | 500 to 5000 nM
8 | ≤ 50 nM | COc1cncc(-c2cn(Cc3ccc(N4CCC[C@@H](NCC5CCC5)C4)cn3)nn2)c1 [Compound 087, (R)-N-(cyclobutylmethyl)-1-(6-((4-(5-methoxypyridin-3-yl)-1H-1,2,3-triazol-1-yl)methyl)pyridin-3-yl)piperidin-3-amine] | 500 to 5000 nM | 500 to 5000 nM
9 | ≤ 50 nM | COc1cncc(-c2cc(Cn3ccc(N4CCC[C@@H](NCC5CCC5)C4)cc3=O)n[nH]2)c1 [Compound 095, (R)-4-(3-((cyclobutylmethyl)amino)piperidin-1-yl)-1-((5-(5-methoxypyridin-3-yl)-1H-pyrazol-3-yl)methyl)pyridin-2(1H)-one] | ≤ 500 nM | 500 to 5000 nM
10 | ≤ 50 nM | COc1cncc(-c2ncc(Cn3ccc(N4CCC[C@@H](NCC5CCC5)C4)cc3=O)s2)c1 [Compound 097, (R)-4-(3-((cyclobutylmethyl)amino)piperidin-1-yl)-1-((2-(5-methoxypyridin-3-yl)thiazol-5-yl)methyl)pyridin-2(1H)-one] | ≤ 500 nM | ≤ 500 nM
11 | ≤ 50 nM | COc1cncc(-n2cc(Cn3ccc(N4CCC[C@@H](NCC5CCC5)C4)cc3=O)cn2)c1 [Compound 107, (R)-4-(3-((cyclobutylmethyl)amino)piperidin-1-yl)-1-((1-(5-methoxypyridin-3-yl)-1H-pyrazol-4-yl)methyl)pyridin-2(1H)-one] | ≤ 500 nM | ≤ 500 nM
12 | ≤ 50 nM | COc1cncc(-c2cn([C@H](C)n3ccc(N4CCC[C@@H](NCC5CCC5)C4)cc3=S)nn2)c1 [Compound 116, 4-((R)-3-((cyclobutylmethyl)amino)piperidin-1-yl)-1-((R)-1-(4-(5-methoxypyridin-3-yl)-1H-1,2,3-triazol-1-yl)ethyl)pyridine-2(1H)-thione] | ≤ 500 nM | ≤ 500 nM
13 | ≤ 50 nM | COc1cc(-c2cn(Cc3ccc(N4CCC[C@@H](NCC5CCC5)C4)cc3)nn2)c2cn[nH]c2c1 [Compound 123, (R)-N-(cyclobutylmethyl)-1-(4-((4-(6-methoxy-1H-indazol-4-yl)-1-1,2,3-triazol-1-yl)methyl)phenyl)piperidin-3-amine] | ≤ 500 nM | ≤ 500 nM
14 | ≤ 50 nM | COc1cncc(-c2cn(C(C)n3ccc(N4CCC[C@@H](NCC5CCC5)C4)c(F)c3=O)nn2)c1 (stereo partly drawn) [Compound 126, 4-((R)-3-((cyclobutylmethyl)amino)piperidin-1-yl)-3-fluoro-1-(1-(4-(5-methoxypyridin-3-yl)-1H-1,2,3-triazol-1-yl)ethyl)pyridin-2(1H)-one] | 500 to 5000 nM | > 5000 nM
15 | ≤ 50 nM | COc1cncc(-c2cn(C3(c4ccc(N5CCC[C@@H](NCC6CCC6)C5)cc4)COC3)nn2)c1 [Compound 134, (R)-N-(cyclobutylmethyl)-1-(4-(3-(4-(5-methoxypyridin-3-yl)-1H-1,2,3-triazol-1-yl)oxetan-3-yl)phenyl)piperidin-3-amine] | ≤ 500 nM | ≤ 500 nM
16 | ≤ 50 nM | CN(C)c1cncc(-c2cn(Cc3ccc(N4CCC[C@@H](NCC5CCC5)C4)cn3)nn2)c1 [Compound 139, (R)-5-(1-((5-(3-((cyclobutylmethyl)amino)piperidin-1-yl)pyridin-2-yl)methyl)-1H-1,2,3-triazol-4-yl)-N,N-dimethylpyridin-3-amine] | ≤ 500 nM | ≤ 500 nM
17 | ≤ 50 nM | CN(C)c1cncc(-c2cn(Cc3ccc(N4CCC[C@@H](NCC5CCC5)C4)cc3)nn2)c1 [Compound 140] | ≤ 500 nM | ≤ 500 nM
18 | ≤ 50 nM | COc1cncc(-c2cn(Cc3ccc(N4CCC[C@@H](NCC5CCC5)C4)cc3)cn2)c1 [Compound 144, (R)-N-(cyclobutylmethyl)-1-(4-((4-(5-methoxypyridin-3-yl)-1H-imidazol-1-yl)methyl)phenyl)piperidin-3-amine] | 500 to 5000 nM | 500 to 5000 nM
19 | ≤ 50 nM | CN(C)c1cncc(-c2cn(C3(c4ccc(N5CCC[C@@H](NCC6CCC6)C5)cc4)COC3)nn2)c1 [Compound 148, (R)-5-(1-(3-(4-(3-((cyclobutylmethyl)amino)piperidin-1-yl)phenyl)oxetan-3-yl)-1H-1,2,3-triazol-4-yl)-N,N-dimethylpyridin-3-amine] | ≤ 500 nM | ≤ 500 nM
20 | ≤ 50 nM | CN(C)c1cncc(-c2cn(C3(c4ccc(N5CCC[C@@H](NCC6CCC6)C5)cn4)COC3)nn2)c1 [Compound 149, (R)-5-(1-(3-(5-(3-((cyclobutylmethyl)amino)piperidin-1-yl)pyridin-2-yl)oxetan-3-yl)-1H-1,2,3-triazol-4-yl)-N,N-dimethylpyridin-3-amine] | ≤ 500 nM | ≤ 500 nM
21 | ≤ 50 nM | COc1cncc(-c2cn(C3(c4ccc(N5CCC[C@@H](NCC6CCC6)C5)cn4)COC3)nn2)c1 [Compound 150, (R)-N-(cyclobutylmethyl)-1-(6-(3-(4-(5-methoxypyridin-3-yl)-1H-1,2,3-triazol-1-yl)oxetan-3-yl)pyridin-3-yl)piperidin-3-amine] | ≤ 500 nM | ≤ 500 nM
22 | ≤ 50 nM | CC(n1cc(-c2cncc(N(C)C)n2)nn1)n1ccc(N2CCC[C@@H](NCC3CCC3)C2)cc1=O (stereo partly drawn) [Compound 164, 4-((R)-3-((cyclobutylmethyl)amino)piperidin-1-yl)-1-(1-(4-(6-(dimethylamino)pyrazin-2-yl)-1H-1,2,3-triazol-1-yl)ethyl)pyridin-2(1H)-one] | ≤ 500 nM | ≤ 500 nM
23 | ≤ 50 nM | CC(c1nnc(-c2cncc(N(C)C)c2)s1)n1ccc(N2CCC[C@@H](NCC3CCC3)C2)cc1=O (stereo partly drawn) [Compound 171, 4-((R)-3-((cyclobutylmethyl)amino)piperidin-1-yl)-1-(1-(5-(5-(dimethylamino)pyridin-3-yl)-1,3,4-thiadiazol-2-yl)ethyl)pyridin-2(1H)-one] | ≤ 500 nM | ≤ 500 nM
24 | ≤ 50 nM | CC(c1ccc(N2CCC[C@@H](NCC3CCC3)C2)nn1)n1cnc(-c2cncc(N(C)C)c2)c1 (stereo partly drawn) [Compound 173, 5-(1-(1-(6-((R)-3-((cyclobutylmethyl)amino)piperidin-1-yl)pyridazin-3-yl)ethyl)-1H-imidazol-4-yl)-N,N-dimethylpyridin-3-amine] | ≤ 500 nM | ≤ 500 nM
25 | ≤ 50 nM | CN(C)c1cncc(-c2cn(Cn3ccc(N4CCC[C@@H](NCC5CC5)C4)cc3=O)nn2)c1 [Compound 174, (R)-4-(3-((cyclopropylmethyl)amino)piperidin-1-yl)-1-((4-(5-(dimethylamino)pyridin-3-yl)-1H-1,2,3-triazol-1-yl)methyl)pyridin-2(1H)-one] | ≤ 500 nM | ≤ 500 nM
